Data set [1] is classed as physicochemical. As for the experimental part:
Hereinafter, unless specified otherwise the solubility of material is determined in reverse osmosis (RO) water at room temperature. Where the solubility is expressed as “%” it to be understood as number of grams of material soluble in 100 grams of solvent.
The temperature was increased at 1° C. per minute to 121° C. The mixture was maintained at 121° C. for 1 hour and then the temperature was decreased to 80° C., at 1° C. per minute, and the obtained solution was spray dried using YC-015 laboratory spray drier (Shanghai Pilotech Instrument & Equipment Co. Ltd., China) operating at 175° C. inlet and 100° C. outlet temperature. Solution was maintained at 80° C. to prevent premature crystallization.
Solubility were evaluated for Reb A, Reb B, mechanical blends of Reb A and Reb B powders of different ratios, and mixtures of Reb A and Reb B prepared according to process described in EXAMPLE 1.

Data set [2] is described as follows: Sweetness factor (SF) determination by trained panel in water. The settings on record: for Calculated SF (sweetness factor) / Usage Level, % (concentration corresponding to 5% sucrose equivalent sweetness): in water, 5% SE. As for the experimental part:
The sweetness factors for different sweetener from all major groups were measured by tasting several concentrations of each sweetener in water by trained panel. From the sensory test at a, the concentration (%) that corresponds to the 5% sucrose equivalent (SE) sweetness were estimated and listed in Table 2. The sweetness equivalent (SE) of high intensity sweeteners (HIS) varies according to the target sugar equivalent sweetness levels, that are tested as shown in Table 3.

A short description of data set [3]: Trained panel evaluation, no fat (NF) yogurt. The following applies: formulas of Table 6. The procedure: Samples were prepared according to formulas outlined below in Table 6. Samples included a full sugar reference, an aspartame reference, a Reb A control and several test samples with a Reb A/Reb B blends. The samples were evaluated by a trained panel and screened for overall sweetness, bitterness, astringency, mouth coating, flavor intensity, acidity/tartness, sweet lingering and bitter lingering.

The nature of data set [4]: Trained panel evaluation, chocolate milk. The settings on record: sugar-equivalent sweetness around 5.5%. The procedure: A series of samples were prepared to having sugar-equivalent sweetness around 5.5%. The control sample was sweetened with 5.5% sugar the test samples were sweetened with different ratios of Reb A/Reb as shown in Table 7 below. The samples were evaluated by a trained panel and screened for overall sweetness, bitterness, astringency, mouth coating, flavor intensity, acidity/tartness, sweet lingering and bitter lingering.

The conditions of data set [5]: cited from earlier work.
For data set [6] the following is noted: Chang and Cook 1983; cited from earlier work.
For data set [7] the following is noted: room temperature; reported values; cited from earlier work.
Data set [8] is described as follows: Sugar equivalent sweetness of sweetener/Reb B combinations in plain water, trained panel. The settings on record: Reb B at 50, 150 and 300 ppm with sweeteners of Table 2. As for the experimental part: In one embodiment, Reb B was combined (at 50, 150 and 300 ppm) with several sweeteners listed in Table 2 to make solutions in plain water. Some of the sweeteners were tested at two different concentrations to obtain around 2% sugar equivalent sweetness without any Reb B. A trained panel conducted sensory tests to determine the effect of the addition of different amounts of Reb B to each sweetener on overall sweetness quality and intensity as shown in Table 4.

Data set [9] is described as follows: Descriptive sensory evaluation of sweetener solutions in water by trained panel. The procedure: In another embodiment, Stevia sweetener (Reb A, Reb B or blends thereof) solutions were made by completely dissolving Stevia into distilled water. Solutions were tasted and evaluated by a trained panel. […] All solutions were made with different mass ratio of Reb A and Reb Bas shown in FIG. 3 to get the 7% sweetness equivalent. Reb B a mount varied between 20 mg/kg to 150 mg/kg.
All sensory attributes were rated by trained panelists on a scale of zero (0) to ten (10). Samples were presented in a randomized fashion and labeled with three-digit codes.
Sweet Onset—This attribute describes the time at which panelists perceived sweetness upon placing the sample in the mouth. A score of zero indicates immediate identification of sweetness, whereas a score of ten indicates a long delay in the time that sweetness was perceived.
Total Sweetness—This attribute describes the highest intensity of sweetness perceived during tasting. A score of zero indicates no sweetness, while a score of ten indicates very high sweetness.
Bitterness—This attribute describes the highest intensity of bitterness perceived during tasting. A score of zero indicates no bitterness, while a score of ten indicates very high bitterness.
Rounded Sweetness—This attribute describes the duration of sweetness while samples are in the mouth.
Flavor Intensity—This attribute describes the highest intensity of flavor perceived during tasting. A score of zero indicates no flavor, while a score of ten indicates very high flavor.
Astringency—This attribute describes the highest intensity of astringency perceived during tasting. A score of zero indicates no astringency, while a score of ten indicates very high astringency.
Mouth Coating—This attribute describes the highest intensity of sweetness coating perceived while samples are in the mouth.
Sweet Lingering—This attribute describes the highest intensity of sweetness perceived after the sample has been swallowed.
Bitter Lingering—This attribute describes the highest intensity of bitterness perceived after the sample has been swallowed.
Aftertaste Mouth Coating—This attribute describes the highest intensity of sweetness coating perceived after the sample has been swallowed.
Tartness—This attribute describes the highest intensity of tartness perceived during tasting. A score of zero indicates no tartness, while a score of ten indicates very high tartness.
Cooling Sensation—This attribute describes the highest intensity of cooling sensation perceived during tasting. A score of zero indicates no cooling sensation, while a score of ten indicates very high cooling sensation.
Water solution of mogroside (100 ppm) sweetener was tested against solutions made with mogroside (100 ppm)+Reb B (300 ppm) and mogroside (100 ppm)+Reb A/B (Example 3) blend (128 ppm) by a 13 members trained panel.
Water solution of sucralose (40 ppm) was tested against solutions made with sucralose (40 ppm)+Reb B (150 ppm) and sucralose (40 ppm)+Reb A/Reb B (Example 3) blend (68 ppm) by a 13 members trained panel.
Water solution of erythritol (5%) was tested against solutions made with erythritol (5%)+Reb B (50 ppm) and erythritol (5%)+Reb A/Reb B (Example 3) blend (22 ppm) by a 13 members trained panel.
Fructo-oligosaccharide or FOS solution (21%) was tested against solutions made with FOS (21%)+Reb B (150 ppm) and FOS (21%)+Reb A/Reb B (Example 3) blend (68 ppm) by a 13 members trained panel.

A short description of data set [10]: Descriptive sensory evaluation, lime-tequila margarita alcoholic beverage. The following applies: FOS 21% + Reb B 150 ppm, about 10% alcohol. The procedure:
The Fructo-oligosaccharide (FOS) sweetener and the steviol glycosides compositions (described in EXAMPLE 12) were used for making an alcoholic beverage—lime-tequila margarita drink using Margarita pre-mix from FIS (Flavor International Systems), recommended usage was 0.4%. Prepared Lime Tequila Margarita blank containing about 10% alcohol, no sugar added. To sweeten the beverage, used FOS (21%), FOS+Reb B (150 ppm), and FOS+Reb A/Reb B (68 ppm). Descriptive Sensory evaluation was conducted with 8-13 panelists.

Data set [11] is described as follows: Descriptive sensory evaluation, peppermint mouthwash, 8 panelists. The following applies: Maltitol 6.44% + Reb B 50 or 150 ppm. The procedure: A commercial unsweetened (no sugar or sweetener) peppermint mouthwash product (Brand: The Natural Dentist) was used to determine the effect of Reb B with other sweetener, as example maltitol, a sugar alcohol on the sensory profile of mouthwash. Mouthwash samples were sweetened with Maltitol (6.44%), Maltitol+Reb B (50 ppm), Maltitol+Reb B (150 ppm). Descriptive sensory evaluation was conducted with 8 panelists. They evaluated several attributes including sweet onset, total sweetness, bitterness, rounded sweetness, flavor intensity, astringency, mouth coating, sweet lingering, bitter lingering, aftertaste mouth coating, tartness.

Setting [12] is: sensory evaluations, Crammer and Ikan 1986.

Read-outs that look alike come from different tables or passages of the source.

Turning to `C=C1C[C@@]23CC[C@H]4[C@@](C)(CCC[C@@]4(C)C(=O)O[C@@H]4O[C@H](CO)[C@@H](O)[C@H](O)[C@H]4O)[C@@H]2CC[C@]1(O[C@@H]1O[C@H](CO)[C@@H](O)[C@H](O[C@@H]2O[C@H](CO)[C@@H](O)[C@H](O)[C@H]2O)[C@H]1O[C@@H]1O[C@H](CO)[C@@H](O)[C@H](O)[C@H]1O)C3` [Reb A, Rebaudioside A], the values for the water solubility entry in [1] and in [7] were “around 1%” and 0.8%, respectively. Also, the Sweetness factor was determined as 290 in data set [2] (SE level 5.0%), 250 in [2] (SE level 7.5%), 200 in data set [2] (SE level 10.0%) and 400 in [2] (SE level […]). Moreover, the “Calculated SF (sweetness factor)” value in data set [2] is recorded as 291. Also, in data set [2], the “Usage Level, % (concentration corresponding to 5% sucrose equivalent sweetness)” value came to 0.0172%. Besides, in data set [3], the acidity entry is given as “enhanced the acidity of the yogurt”. Moreover, in data set [3], the bitterness entry is given as “bitterness at the end”. Also, the “sweetness and flavor profile” value in [4] is “separate peaks for sweetness, dairy notes, and cocoa notes”. In [5] (Tanaka 1987, Phillips 1989), the “sensory attributes among major steviol glycosides” value was “the least astringent, the least bitter, and the least persistent aftertaste”. Further, in data set [5] (setting [12]), the “times sweeter than sucrose” value was 350-450 times. Also, the “stability in carbonated beverages” value in [6] is “heat and pH stability”.
On to `C=C1C[C@@]23CC[C@H]4[C@@](C)(CCC[C@@]4(C)C(=O)O)[C@@H]2CC[C@]1(O[C@@H]1O[C@H](CO)[C@@H](O)[C@H](O[C@@H]2O[C@H](CO)[C@@H](O)[C@H](O)[C@H]2O)[C@H]1O[C@@H]1O[C@H](CO)[C@@H](O)[C@H](O)[C@H]1O)C3` [Reb B, Rebaudioside B], for which the Solubility in water entry in [1] is given as “No*”. In addition, the Sweetness factor is on record as 126 in [2] (SE level 5.0%), 95 in [2] (SE level 7.5%), 59 in data set [2] (SE level 10.0%) and 146 in data set [2] (SE level […]). Moreover, in [2], the “Calculated SF (sweetness factor)” value is given as 126. Moreover, the “Usage Level, % (concentration corresponding to 5% sucrose equivalent sweetness)” value in [2] stood at 0.0397%. Moreover, the “effect of addition of Reb B on overall sweetness quality and intensity” value in [8] is “generally increased upfront sweetness, made the sweetness profile rounded and contributed to sweetness lingering at a higher level”. Further, the “sweetness and sweetness profile versus FOS solution” value in data set [9] (FOS 21% + Reb B 150 ppm or Reb A/Reb B 68 ppm) was “significantly higher sweetness and made the sweetness profile rounded”. In data set [9] (water, erythritol 5% + Reb B 50 ppm), the “onset of sweetness, peak sweetness and sweetness lingering versus erythritol solution” value is “improved the onset of sweetness and the peak sweetness without increasing the sweetness lingering”. The “taste (sweetness, bitterness, cooling effect) versus erythritol solution” value in [9] (water, erythritol 5% + Reb B 50 ppm or Reb A/Reb B 22 ppm) is “improved the taste of erythritol sample significantly by increasing the sweetness and reducing the bitterness and cooling effect”. Moreover, in data set [9] (water, mogroside 100 ppm + Reb B 300 ppm or Reb A/B 128 ppm), the “taste attributes versus mogroside solution” value was “increases sweetness level significantly, improves the onset of sweetness and decreases the bitterness”. In [9] (water, sucralose 40 ppm + Reb B 150 ppm), the “onset of sweetness and off taste versus sucralose solution” value is “improved the onset of sweetness and decreased the off taste slightly”. Moreover, the “sweetness level versus sucralose solution” value in data set [9] (water, sucralose 40 ppm + Reb B 150 ppm or Reb A/Reb B 68 ppm) is on record as “significantly higher sweetness level”. Besides, in data set [10], the “flavor intensity, bitter lingering and tartness” value was “decrease in flavor intensity, bitter lingering, and tartness”. Further, the “sweetness profile of the alcoholic beverage” value in data set [10] was “sweetness onset was earlier in the profile, and there was an increase in total sweetness and the sweetness profile was more rounded”. Besides, the “all other sensory attributes” value in [11] is listed as “generally unchanged”. The “sweetness onset and total sweetness” value in data set [11] was “created an earlier sweetness onset, and higher total sweetness”. Also, in data set [5] (setting [12]), the “times sweeter than sucrose” value is listed as 300-350 times. Further, in data set [7], the water solubility result is “about 0.1%”.
`C=C1C[C@@]23CC[C@H]4[C@@](C)(CCC[C@@]4(C)C(=O)O[C@@H]4O[C@H](CO)[C@@H](O)[C@H](O)[C@H]4O)[C@@H]2CC[C@]1(O[C@@H]1O[C@H](CO)[C@@H](O)[C@H](O)[C@H]1O[C@@H]1O[C@H](CO)[C@@H](O)[C@H](O)[C@H]1O)C3` [stevioside]: the “times sweeter than sucrose” value in data set [5] (as usually found, literature) is recorded as 110-270 times. Besides, the “stability in carbonated beverages” value in data set [6] was “heat and pH stability”.

The values above are taken from patent publication US12016355B2, “Stevia composition” (PURECIRCLE SDN BHD, priority 2011, dated 2024).
